Source: ChEMBL document CHEMBL1156829 (Proc Natl Acad Sci U S A, 2008)
pEC50: −log10 of the molar value.

Assays:
[1] = tested on: Plasmodium falciparum; assay: NOVARTIS: Inhibition of Plasmodium falciparum 3D7 (drug-susceptible) proliferation in erythrocyte-based infection assay; format: functional, organism-based; conditions: Plasmodium falciparum, 3D7
[2] = tested on: Plasmodium falciparum; assay: NOVARTIS: Inhibition of Plasmodium falciparum W2 (drug-resistant) proliferation in erythrocyte-based infection assay; format: functional, organism-based; conditions: for pEC50: Plasmodium falciparum, W2, read-out: EC50
[3] = NOVARTIS: Cytotoxicity against human hepatocellular carcinoma cell line (Huh7); format: toxicity, cell-based, Huh-7; conditions: Huh7 cells (hepatocellular carcinoma cell line)

SMILES	pEC50 [1]	EC50 [2]	CC50 [3] [nM]	pEC50 [2]
N=C(N)NN=Cc1cc(Cl)ccc1O	7.89	No fit	> 1860	–
O=c1c(=Cc2ccc(Cl)cc2)sc2nc3ccccc3n12	< 6.36	–	> 10000	6.72
O=C1c2ccccc2-c2nnc(-c3ccc(Br)cc3)cc21	< 5.60	–	> 100000	5.72
CC1CCC2C(C)C(=O)OC3OC4(C)CCC1C32OO4 (configuration not stated)	7.92	–	> 100000	8.34
Clc1ncnc2ncn(Cc3ccccc3)c12	5.78	–	58100	5.96
COC(OC)C(C)=NNC(N)=S	8.05	–	> 100000	8.44
CCOC(=O)C1=C(c2ccccc2)N=c2sc(=Cc3cc(OC)c(OC)c(OC)c3)c(=O)n2C1c1c(OC)ccc2ccccc12 (configuration not stated)	< 5.11	No fit	> 100000	–
Oc1ccccc1CN1CCN(C(c2ccccc2)c2ccccc2)CC1	6.13	–	8920	6.78
Cc1ccc(C(C(=O)NC2CCCCC2)N(C(=O)Cn2nnc3ccccc32)c2ccc(S(=O)(=O)NCC3CCCO3)cc2)o1 (configuration not stated)	< 4.91	–	> 100000	5.72
O=C(O)C=CC(=O)N(C1CCCCC1)C1CCCCC1	< 4.90	–	> 100000	5.73
COc1ccc(C2CC(=O)C3=C(C2)NC(C)=C(C(=O)OC(C)C)C3c2ccc(Cl)cc2Cl)cc1OC (configuration not stated)	8.20	–	> 100000	8.41
CCc1nc2nc(C)cc(Nc3ccc(I)cc3)n2n1	6.59	–	> 100000	> 8.52
CCCCN(CCCC)C(=O)Cn1ccc(=N)c2ccccc21	5.43	–	> 100000	> 9.82
CCOC(=O)c1cnc2cc(OCC3CC3)c(OCC3CC3)cc2c1O	> 8.24	–	> 100000	> 10.15
COC(=O)c1sc2nc(CN3CCC(C)CC3)ccc2c1NC(=O)c1ccc(C)s1	5.01	No fit	> 100000	–
CCOC(=O)c1cnc2c(OC)cccc2c1Nc1cccc(C(F)(F)F)c1	6.03	No fit	26000	–
CCOC(=O)c1sc2nc(N)c(C#N)c(-c3cccs3)c2c1N	5.95	No fit	> 100000	–
Cc1cc(C)c(S(=O)(=O)N2CCC(NC(=O)c3ccccc3)CC2)c(C)c1	5.97	No fit	> 100000	–
CCc1c(C#N)c(N)nc(SCC(=O)c2ccc(C)cc2)c1C#N	5.92	No fit	> 100000	–
CCOC(=O)C1=C(C)NC2=C(C(=O)CC(c3ccc(OC)c(OC)c3)C2)C1c1ccc(Br)cc1 (configuration not stated)	7.74	–	> 100000	8.32
COc1ccc(C(OCC(=O)N2CCN(Cc3ccccc3)CC2)c2ccc(F)cc2)cn1 (configuration not stated)	6.13	–	> 10000	6.73
CCCc1cc(-c2onc(C)c2-c2ccc(C(=O)OCC)o2)c(O)cc1OC	6.38	–	18500	6.46
COc1cccc(CNCCCCCCCCCCCCNCc2cccc(OC)c2O)c1O	6.09	–	53500	5.99
C=CC[n+]1cccc2c3ccccc3ccc21	5.76	–	> 100000	5.72
O=C1NC(=S)N/C1=C/c1cccc(Oc2ccccc2)c1	5.72	–	> 10000	< 6.72
Fc1ccccc1Nc1nc(NCC2CCCO2)c2ccccc2n1 (configuration not stated)	6.17	–	34200	6.20
COc1cccc(-c2nc3c(OC)ccc(OC)c3cc2CNCC(C)(C)CN(C)C)c1	6.61	–	> 10000	6.73

SMILES	pEC50 [1]	EC50 [2]	CC50 [3] [nM]	pEC50 [2]
CCCCN1Cc2ccc(C(N)=O)cc2N=C1C1CC1	7.21	–	> 11400	6.67
O=C(Cc1ccsc1)NC1CCN(CC(O)CN(Cc2ccccc2)S(=O)(=O)c2ccccc2)C1 (configuration not stated)	6.39	–	> 10000	6.73
COc1ccc2nc(C)cc(Nc3ccc(Br)cc3)c2c1	6.70	–	19700	6.43
COc1ccc(-n2c(CNC(=O)c3cccc4ccccc34)n[nH]c2=S)cc1	5.96	–	> 100000	5.72
Cc1cc(Nc2cc(Cl)cc(Cl)c2)n2nc(C)nc2n1	5.88	–	> 100000	5.73
CCOc1cc(C(=O)Nc2ccc(-c3nc4ccccc4[nH]3)cc2)cc(OCC)c1OCC	6.64	–	40000	6.12
COc1ccc(C2CC3=NC(C)=C(C(=O)OC(C)C)C(c4ccccc4Cl)C3=C(O)C2)cc1OC (configuration not stated)	8.21	–	> 100000	8.39
O=C(CCl)NCCCCNc1ccnc2cc(Cl)ccc12	< 6.09	No fit	> 10000	–
CCCC(=O)Oc1ccccc1-c1nc2cc(C)ccn2c1NC(C)(C)CC(C)(C)C	5.45	–	> 100000	5.72
O=C(c1ccc([N+](=O)[O-])cc1)C1C(C(=O)c2ccc(F)cc2)C2(C(=O)Nc3ccccc32)C2C=Cc3ccccc3N12 (configuration not stated)	< 6.21	–	> 10000	6.73
CC[n+]1c(C)cc2c(sc3ccccc32)c1C	5.98	–	> 100000	5.73
CCCOC(=O)C1=C(C)NC2=C(C(=O)CC(c3ccc(OC)c(OC)c3)C2)C1c1ccc(Cl)cc1Cl (configuration not stated)	8.12	–	> 100000	8.36
Cn1c(=O)[nH]c(=O)c2c1nc(N1CCCCCC1)n2CC(O)COc1ccc([N+](=O)[O-])cc1 (configuration not stated)	< 4.90	–	> 100000	5.73
CCCCCOC(=O)C1=C(C)NC2=C(C(=O)CC(C)(C)C2)C1c1ccncc1 (configuration not stated)	5.28	–	> 100000	5.73
Cc1cccc(NC(=O)C2C3C=CC4(O3)C2C(=O)N(CC2COc3ccccc3O2)C4C(=O)NC2CCCC(C)C2C)c1 (configuration not stated)	< 5.09	–	> 100000	5.73
Cc1nc(C23CC4CC(CC(C4)C2)C3)cs1	< 4.90	–	> 100000	5.73
CCCCCCc1cc2cc(-c3nc4ccccc4[nH]3)c(=Nc3ccccc3C)oc2cc1O	5.67	No fit	> 100000	–
COc1cccc(CCOc2ccc3c(c2)C(=O)N(C(C(=O)NC(C)(C)C)c2cccc(OC)c2)C(CO)C(=O)N3)c1 (configuration not stated)	6.82	–	> 9100	6.77
CC(C)(C)c1cc(CCC(=O)Nc2c3c(nc4ccccc24)N(c2cccc(Cl)c2)CC3)cc(C(C)(C)C)c1O	5.18	No fit	> 100000	–
CC(c1nc2ccccc2c(=O)n1C)N1CCN(C(=O)C(C)(C)C)CC1 (configuration not stated)	6.73	–	> 10000	6.72
CSc1nnc(NC(=O)C2CC2)s1	< 4.90	–	> 100000	5.72
O=C(CSc1nc2ccccc2c(=O)n1CCCN1CCOCC1)Nc1cccc(S(=O)(=O)N2CCCCCC2)c1	6.33	–	62100	5.93
CCOC(=O)C(=O)N1c2ccc(OC)cc2-c2c(ssc2=S)C1(C)C	8.61	–	> 100000	8.50
Cc1ccn(CC(=O)N2CCOc3c(cc(-c4csc5ccccc45)cc3OCCc3ccccn3)C2)n1	6.08	–	39000	6.14
O=C(NN=Cc1ccc(O)cc1O)c1ccncc1	5.32	–	> 100000	5.73
CC(=O)N(C1=C(N(C)C)C(=O)c2ccccc2C1=O)c1cc(C)cc(C)c1	7.64	–	2230	7.38
Cc1nc2cc(-c3ccc(Br)cc3)nn2c(O)c1C	5.56	No fit	> 100000	–
